Experiments:
CX3CR1 [1] = biological target: T1, CX3CR1 (Homo sapiens (Human), UniProt P49238); assay: hCX3CR1 [125I]-CX3CL1 displacement binding (SPA); conditions: CHO-hCX3CR1 membranes, [125I]-CX3CL1, SPA beads
Description: hCX3CR1 [^125I]-CX3CL1 Displacement Binding (SPA)
CHO-hCX3CR1 membranes (3 μg per well) together with […] [^125I]-CX3CL1 (Perkin Elmer) and different concentrations of competitor compound were incubated together with 400 μg/well WGA coated PVT SPA beads (Perkin Elmer) in 50 mM HEPES (pH 7.4), 10 mM MgCl2, 1 mM EDTA and 0.1% Gelatin in a Greiner polystyrene flat-bottom 384-well plate. The plate was incubated for 20 h at room temperature before the radioactivity was measured using a MicroBeta Trilux reader (PerkinElmer). The DMSO concentration was held constant at 1%.

CX3CR1 [2] = biological target: T1, CX3CR1; assay: hCX3CR1 [3H]-AZD8797 competitive binding assay (filter); conditions: CHO-hCX3CR1 membranes, 2 nM [3H]-AZD8797
How it was run: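 CHO-hCX3CR1 membranes (9 μg/well) were incubated 2 h at room temperature with 2 nM [3H]-AZD8797 and varying competitor concentrations. Buffer: 25 mM HEPES pH 7.4, 10 mM MgCl2, 1 mM CaCl2, 0.5% BSA, 1% DMSO. Bound ligand was collected by vacuum filtration, washed in ice-cold buffer with 500 mM NaCl, and counted by scintillation.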

T1 sequence (P49238 whole entry): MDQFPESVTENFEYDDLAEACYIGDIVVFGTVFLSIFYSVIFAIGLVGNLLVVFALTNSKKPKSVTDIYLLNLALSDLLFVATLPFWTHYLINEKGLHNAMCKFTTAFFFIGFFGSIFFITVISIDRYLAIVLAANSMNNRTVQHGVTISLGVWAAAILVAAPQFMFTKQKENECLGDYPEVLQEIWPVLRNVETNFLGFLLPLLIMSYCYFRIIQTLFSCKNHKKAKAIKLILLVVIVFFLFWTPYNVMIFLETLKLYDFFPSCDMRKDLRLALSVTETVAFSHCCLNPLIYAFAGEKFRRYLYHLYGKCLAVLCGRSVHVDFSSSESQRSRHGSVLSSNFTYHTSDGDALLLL

| IC50 (CX3CR1 [1]) [µM] | IC50 (CX3CR1 [2]) [µM] | Structure (SMILES) |
| --- | --- | --- |
| 1.97 | – | CC(C)C[C@H](CO)Nc1nc(C[C@H](C)c2ccc(Cl)c(Cl)c2)nc(NS(C)(=O)=O)n1 (relative stereo) [Example 1, N-(4-((R*)-2-(3,4-Dichlorophenyl)propyl)-6-(((R)-1-hydroxy-4-methylpentan-2-yl)amino)-1,3,5-triazin-2-yl)methanesulfonamide] |
| 0.362 | 0.361 | CC(C)C[C@H](CO)Nc1nc(C[C@@H](C)c2ccc(Cl)c(Cl)c2)nc(NS(C)(=O)=O)n1 (single isomer, unassigned) [Example 2, N-(4-((S*)-2-(3,4-Dichlorophenyl)propyl)-6-(((R)-1-hydroxy-4-methylpentan-2-yl)amino)-1,3,5-triazin-2-yl)methanesulfonamide] |
| 0.448 | 0.124 | CC(C)C[C@H](CO)Nc1nc(C[C@H](C)c2cccc(Cl)c2F)nc(NS(C)(=O)=O)n1 (single isomer, unassigned) [Example 3, N-(4-((S*)-2-(3-Chloro-2-fluorophenyl)propyl)-6-(((R)-1-hydroxy-4-methylpentan-2-yl)amino)-1,3,5-triazin-2-yl)methanesulfonamide] |
| 0.895 | 0.239 | CC(C)C[C@H](CO)Nc1nc(C[C@H](C)c2ccc(F)cc2F)nc(NS(C)(=O)=O)n1 (single isomer, unassigned) [Example 5, N-(4-((S*)-2-(2,4-Difluorophenyl)propyl)-6-(((R)-1-hydroxy-4-methylpentan-2-yl)amino)-1,3,5-triazin-2-yl)methanesulfonamide] |
| > 20 | 1.35 | COc1ncc([C@@H](C)Cc2nc(N[C@@H](CO)CC(C)C)nc(NS(C)(=O)=O)n2)cc1F (single isomer, unassigned) [Example 8, N-(4-((S*)-2-(5-Fluoro-6-methoxypyridin-3-yl)propyl)-6-(((R)-1-hydroxy-4-methylpentan-2-yl)amino)-1,3,5-triazin-2-yl)methanesulfonamide] |
| > 10 | 0.205 | COc1ncc([C@H](C)Cc2nc(N[C@@H](CO)CC(C)C)nc(NS(C)(=O)=O)n2)cc1Cl (single isomer, unassigned) [Example 9, N-(4-((R*)-2-(5-Chloro-6-methoxypyridin-3-yl)propyl)-6-(((R)-1-hydroxy-4-methylpentan-2-yl)amino)-1,3,5-triazin-2-yl)methanesulfonamide] |
| > 20 | 0.922 | COc1ncc([C@@H](C)Cc2nc(N[C@@H](CO)CC(C)C)nc(NS(C)(=O)=O)n2)cc1Cl (single isomer, unassigned) [Example 10, N-(4-((S*)-2-(5-Chloro-6-methoxypyridin-3-yl)propyl)-6-(((R)-1-hydroxy-4-methylpentan-2-yl)amino)-1,3,5-triazin-2-yl)methanesulfonamide] |
| > 30 | > 10 | CC(C)C[C@H](CO)Nc1nc(C[C@H](C)c2cnc(C3CC3)nc2)nc(NS(C)(=O)=O)n1 (single isomer, unassigned) [Example 11, N-(4-((S*)-2-(2-Cyclopropylpyrimidin-5-yl)propyl)-6-(((R)-1-hydroxy-4-methylpentan-2-yl)amino)-1,3,5-triazin-2-yl)methanesulfonamide] |
| 4.25 | 0.614 | COc1cc(C)c([C@H](C)Cc2nc(N[C@@H](CO)CC(C)C)nc(NS(C)(=O)=O)n2)cn1 (single isomer, unassigned) [Example 13, N-(4-(((R)-1-Hydroxy-4-methylpentan-2-yl)amino)-6-((R*)-2-(6-methoxy-4-methylpyridin-3-yl)propyl)-1,3,5-triazin-2-yl)methanesulfonamide] |
| 2.99 | 0.252 | COc1ncc([C@H](C)Cc2nc(N[C@@H](CO)CC(C)C)nc(NS(C)(=O)=O)n2)cc1C (single isomer, unassigned) [Example 15, N-(4-(((R)-1-Hydroxy-4-methylpentan-2-yl)amino)-6-((R*)-2-(6-methoxy-5-methylpyridin-3-yl)propyl)-1,3,5-triazin-2-yl)methanesulfonamide] |
| > 30 | 4.93 | COc1ncc([C@@H](C)Cc2nc(N[C@@H](CO)CC(C)C)nc(NS(C)(=O)=O)n2)cc1C (single isomer, unassigned) [Example 16, N-(4-(((R)-1-Hydroxy-4-methylpentan-2-yl)amino)-6-((S*)-2-(6-methoxy-5-methylpyridin-3-yl)propyl)-1,3,5-triazin-2-yl)methanesulfonamide] |
| 4.37 | 0.307 | COc1ncccc1[C@H](C)Cc1nc(N[C@@H](CO)CC(C)C)nc(NS(C)(=O)=O)n1 (single isomer, unassigned) [Example 17, N-(4-(((R)-1-Hydroxy-4-methylpentan-2-yl)amino)-6-((R*)-2-(2-methoxypyridin-3-yl)propyl)-1,3,5-triazin-2-yl)methanesulfonamide] |
| > 10 | – | CC(C)C[C@H](CO)Nc1nc(C[C@H](C)c2ccccc2)nc(NS(C)(=O)=O)n1 (single isomer, unassigned) [Example 147, N-(4-(((R)-1-Hydroxy-4-methylpentan-2-yl)amino)-6-((S*)-2-phenylpropyl)-1,3,5-triazin-2-yl)methanesulfonamide] |
| – | > 8.01 | CC(C)C[C@H](CO)Nc1nc(CC(C)(C)c2ccccc2)nc(NS(C)(=O)=O)n1 [Example 152, (R)—N-(4-((1-Hydroxy-4-methylpentan-2-yl)amino)-6-(2-methyl-2-phenylpropyl)-1,3,5-triazin-2-yl)methanesulfonamide] |
| – | > 10 | CC(C)C[C@H](CO)Nc1nc(CCC(F)(F)c2ccc(Cl)cc2)nc(NS(C)(=O)=O)n1 [Example 153, (R)—N-(4-(3-(4-Chlorophenyl)-3,3-difluoropropyl)-6-((1-hydroxy-4-methylpentan-2-yl)amino)-1,3,5-triazin-2-yl)methanesulfonamide] |
| – | 1.55 | Cc1ccc(F)c(C(C)Cc2nc(N[C@@H](CO)CC(C)C)nc(NS(C)(=O)=O)n2)n1 (stereo partly drawn) [Example 155, N-(4-(2-(3-Fluoro-6-methylpyridin-2-yl)propyl)-6-(((R)-1-hydroxy-4-methylpentan-2-yl)amino)-1,3,5-triazin-2-yl)methanesulfonamide] |
| – | 1.96 | CC(C)C[C@H](CO)Nc1nc(CC(C)c2ccc(C(=O)N3CCOCC3)cc2)nc(NS(C)(=O)=O)n1 (stereo partly drawn) [Example 156, N-(4-(((R)-1-Hydroxy-4-methylpentan-2-yl)amino)-6-(2-(4-(morpholine-4-carbonyl)phenyl)propyl)-1,3,5-triazin-2-yl)methanesulfonamide] |
| – | 4.35 | CC(C)C[C@H](CO)Nc1nc(CC(C)c2cccc(-c3ccccc3)c2)nc(NS(C)(=O)=O)n1 (some centres unmarked) [Example 157] |
| – | 2.71 | CC(C)C[C@H](CO)Nc1nc(CC(C)c2cccc(C3(O)CC3)c2)nc(NS(C)(=O)=O)n1 (stereo partly drawn) [Example 158, N-(4-(((R)-1-Hydroxy-4-methylpentan-2-yl)amino)-6-(2-(3-(1-hydroxycyclopropyl)phenyl)propyl)-1,3,5-triazin-2-yl)methanesulfonamide] |
| – | 0.264 | CC(C)C[C@H](CO)Nc1nc(CC(C)c2ccc(OC(C)C)nc2)nc(NS(C)(=O)=O)n1 (stereo partly drawn) [Example 159, N-(4-(((R)-1-Hydroxy-4-methylpentan-2-yl)amino)-6-(2-(6-isopropoxypyridin-3-yl)propyl)-1,3,5-triazin-2-yl)methanesulfonamide] |
| – | 0.35 | COc1c(F)cccc1C(C)Cc1nc(N[C@@H](CO)CC(C)C)nc(NS(C)(=O)=O)n1 (stereo partly drawn) [Example 160, N-(4-(2-(3-Fluoro-2-methoxyphenyl)propyl)-6-(((R)-1-hydroxy-4-methylpentan-2-yl)amino)-1,3,5-triazin-2-yl)methanesulfonamide] |
| – | 1.25 | CC(C)C[C@H](CO)Nc1nc(CC(C)c2ccc(F)c(C#N)c2)nc(NS(C)(=O)=O)n1 (some centres unmarked) [Example 161] |
| – | 1.32 | COc1cc(F)ccc1C(C)Cc1nc(N[C@@H](CO)CC(C)C)nc(NS(C)(=O)=O)n1 (stereo partly drawn) [Example 162, N-(4-(2-(4-Fluoro-2-methoxyphenyl)propyl)-6-(((R)-1-hydroxy-4-methylpentan-2-yl)amino)-1,3,5-triazin-2-yl)methanesulfonamide] |
| – | 5.23 | CC(C)C[C@H](CO)Nc1nc(CC(C)c2cccc3c2NC(=O)C3)nc(NS(C)(=O)=O)n1 (stereo partly drawn) [Example 163, N-(4-(((R)-1-Hydroxy-4-methylpentan-2-yl)amino)-6-(2-(2-oxoindolin-7-yl)propyl)-1,3,5-triazin-2-yl)methanesulfonamide] |
| – | 0.726 | COc1cccc(C(C)Cc2nc(N[C@@H](CO)CC(C)C)nc(NS(C)(=O)=O)n2)n1 (stereo partly drawn) [Example 166, N-(4-(((R)-1-Hydroxy-4-methylpentan-2-yl)amino)-6-(2-(6-methoxypyridin-2-yl)propyl)-1,3,5-triazin-2-yl)methanesulfonamide] |
| – | 0.31 | CCOc1ccc(C(C)Cc2nc(N[C@@H](CO)CC(C)C)nc(NS(C)(=O)=O)n2)cn1 (stereo partly drawn) [Example 167, N-(4-(2-(6-Ethoxypyridin-3-yl)propyl)-6-(((R)-1-hydroxy-4-methylpentan-2-yl)amino)-1,3,5-triazin-2-yl)methanesulfonamide] |
| – | 0.815 | CC(C)C[C@H](CO)Nc1nc(CC(C)c2ccc(C#N)c(Cl)c2)nc(NS(C)(=O)=O)n1 (stereo partly drawn) [Example 169, N-(4-(2-(3-Chloro-4-cyanophenyl)propyl)-6-(((R)-1-hydroxy-4-methylpentan-2-yl)amino)-1,3,5-triazin-2-yl)methanesulfonamide] |
